From US8007835B2, “Hibiscusanthocyanins for inhibiting cancers” (Aiken Biotechnology International Co., Ltd., priority 2005, dated 2011)

Columns and labels:
[1] = tested on: c-Jun; test: Western blot, phosphorylated c-Jun in HL-60 cells; type: cell-based, human; details: pretreatment with SB203580 (50 AM), then HAs 3 mg/ml 6 h
Method: (§1) The medium was removed, and the cells were rinsed with TBS at room temperature. Then 500 μl of cold RIPA buffer (1% NP-40, 50 mM Tris-base, 0.1% SDS, 0.5% deoxycholic acid, and 150 mM NaCl, pH 7.5) with three kinds of proteinase freshly added (10 μg/ml leupeptin, 10 μg/ml PMSF, and 17 μg/ml sodium orthovanadate) were used. After sonication for 1 h at 4° C., a centrifugation (10,000×g) of cell lysate was performed for 10 min at 4° C. The supernatant (50 μg protein) was mixed with an equal volume of electrophoresis sample buffer and boiled for 10 min, which was then subjected to SDS-polyacrylamide gel electrophoresis using a 10% running gel, and electroblotted to nitrocellulose membranes (Millipore, Bedford, Mass., USA). Nonspecific binding was blocked by incubation of the membrane with TBS containing 1% (W/V) nonfat dry milk and 0.1% (v/v) Tween-20 (TBST) for more than 2 h. Membranes were washed with TBST three times for 10 min and incubated with appropriate dilution of primary antibody in TBST for 2 h. Membranes were then extensively washed with TBST before being incubated with appropriate horseradish peroxidase-conjugated secondary antibody for 1 h. After washing the membrane three times, 10 min each in TBST, detection was performed using ECLWestern blotting detection reagents (Amersham, Arlington Heights, Ill., USA).

[2] = tested on: Fas; test: Western blot, Fas expression in HL-60 cells; type: cell-based, human; details: pretreatment with SB203580 (50 AM), then HAs 3 mg/ml 6 h
Method: as §1

[3] = tested on: FasL; test: Western blot, FasL expression in HL-60 cells; type: cell-based, human; details: pretreatment with SB203580 (50 AM), then HAs 3 mg/ml 6 h
Method: as §1

[4] = tested on: HL-60 cells; test: Flow cytometry (PI) cell cycle and quantification of apoptosis; details: for effect of inhibitor on HAs-induced apoptosis (cytotoxic action of HAs): PD98059 25 AM, SP600125 20 AM, wortmannin 1 AM, then HAs 3 mg/ml 24 h
Method: Flow cytometric analysis of HL-60 cells was performed on the 24-h cultures using a FACScan. The cells of harvest were centrifuged at 1000 rpm for 5 min at room temperature. Thereafter, cells were washed once with Tris-buffered saline (TBS). Then cell suspension was centrifuged again (1000 rpm, 5 min) and resuspended in 70% ethanol. After incubation at −20 for at least 24 h, the cells were resuspended in 1 ml of cell cycle assay buffer [50 μg/ml propidium iodide (PI), 50 μg/ml RNase A, and 0.1% Triton X-100], and it was incubated for 15 min in darkness. Propidium iodide (Sigma) was excited at 488 nm, and fluorescence signal was subjected to logarithmic amplification with PI fluorescence (red) being detected above 600 nm. Cell cycle distribution is presented as the number of cells versus the amount of DNA as indicated by the intensity of fluorescence, and the extent of apoptosis was determined by counting cells of DNA content below the G0/G1 peak.

Row | Structure (SMILES) | c-Jun (phospho-c-Jun) expression [1] | Fas expression [2] | FasL expression [3] | reduction in the sub-G1 phase compared to HAs alone ([4]; 50 AM SB203580 followed by 24-h exposure to HAs (3 mg/ml)) [%] | sub-G1 phase ([4]; 50 AM SB203580 preincubation followed by 24-h exposure to HAs (3 mg/ml)) [%] | effect of inhibitor on HAs-induced apoptosis (cytotoxic action of HAs) [4]
1 | C[S+]([O-])c1ccc(-c2nc(-c3ccc(F)cc3)c(-c3ccncc3)[nH]2)cc1 (stereo not shown) [SB203580, 4-[4-fluorophenyl]-2-[4-methylsulfinylphenyl]-5-[4-pyridyl]-1H-imidazole] | down-regulated | down-regulated | down-regulated | ~50 | 27.39 | 
2 | Oc1c2ccccc2c2c3c(cccc13)N=N2 [SP600125, 1,9-pyrazoloanthrone] |  |  |  |  |  | did not reduce the cytotoxic action of HAs
3 | COC[C@H]1OC(=O)c2coc3c2[C@@]1(C)C1=C(C3=O)[C@@H]2CCC(=O)[C@@]2(C)C[C@H]1OC(C)=O [wortmannin] |  |  |  |  |  | did not reduce the cytotoxic action of HAs
